Read-outs that look alike come from different tables or passages of the source.
Assays:
Assay in all cases: KinomeScan kinase panel, single concentration 10 µM
Format in all cases: binding
[1] = target: T1, KinomeScan kinase panel (Homo sapiens, UniProt Q16513); settings: PKN2, 10 µM; read-out: score (%)
T1 construct: purchased DiscoveRx (KinomeScan)

[2] = target: T2, KinomeScan kinase panel (Homo sapiens, UniProt Q96Q40); settings: PFTAIRE2, 10 µM; read-out: score (%)
T2 construct: purchased DiscoveRx (KinomeScan)

[3] = target: T3, KinomeScan kinase panel (Homo sapiens, UniProt P51955); settings: NEK2, 10 µM; read-out: score (%)
T3 construct: purchased DiscoveRx (KinomeScan)
T3 sequence (P51955 1-445): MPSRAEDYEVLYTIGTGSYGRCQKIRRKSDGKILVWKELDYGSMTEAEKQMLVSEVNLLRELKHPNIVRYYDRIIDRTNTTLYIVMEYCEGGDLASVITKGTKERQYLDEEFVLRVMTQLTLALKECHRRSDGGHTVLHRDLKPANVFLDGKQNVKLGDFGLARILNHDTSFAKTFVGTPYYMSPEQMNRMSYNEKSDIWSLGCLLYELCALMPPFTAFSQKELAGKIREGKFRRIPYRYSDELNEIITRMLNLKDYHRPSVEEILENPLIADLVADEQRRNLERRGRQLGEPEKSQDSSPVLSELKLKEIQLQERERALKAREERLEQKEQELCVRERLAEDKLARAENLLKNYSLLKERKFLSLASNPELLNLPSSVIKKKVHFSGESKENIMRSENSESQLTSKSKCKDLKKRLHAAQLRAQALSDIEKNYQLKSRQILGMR

[4] = target: T4, KinomeScan kinase panel (Homo sapiens, UniProt Q96D53); settings: ADCK4, 10 µM; read-out: score (%)
T4 construct: purchased DiscoveRx (KinomeScan)
T4 sequence (Q96D53 1-544): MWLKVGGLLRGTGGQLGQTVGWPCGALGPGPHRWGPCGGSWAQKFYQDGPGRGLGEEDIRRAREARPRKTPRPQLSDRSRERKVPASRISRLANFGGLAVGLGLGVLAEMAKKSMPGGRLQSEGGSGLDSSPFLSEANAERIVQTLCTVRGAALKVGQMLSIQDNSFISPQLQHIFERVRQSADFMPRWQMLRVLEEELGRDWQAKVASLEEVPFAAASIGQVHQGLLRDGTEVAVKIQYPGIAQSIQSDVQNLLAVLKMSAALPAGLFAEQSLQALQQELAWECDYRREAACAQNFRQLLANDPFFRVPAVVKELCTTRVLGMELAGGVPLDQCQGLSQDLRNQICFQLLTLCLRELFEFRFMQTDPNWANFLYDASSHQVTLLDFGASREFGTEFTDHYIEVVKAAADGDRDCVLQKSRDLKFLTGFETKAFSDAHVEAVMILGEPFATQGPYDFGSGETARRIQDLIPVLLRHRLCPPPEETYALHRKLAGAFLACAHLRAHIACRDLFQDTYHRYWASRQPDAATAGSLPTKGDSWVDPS

[5] = target: T5, KinomeScan kinase panel (Homo sapiens, UniProt Q9Y463); settings: DYRK1B, 10 µM; read-out: score (%)
T5 construct: purchased DiscoveRx (KinomeScan)

[6] = target: T6, KinomeScan kinase panel (Homo sapiens, UniProt P42336, E545K); settings: PIK3CA(E545K), 10 µM; read-out: score (%)
T6 construct: purchased DiscoveRx (KinomeScan)

[7] = target: T7, KinomeScan kinase panel (Homo sapiens, UniProt P28482); settings: ERK2, 10 µM; read-out: score (%)
T7 construct: purchased DiscoveRx (KinomeScan)

[8] = target: T8, KinomeScan kinase panel (Homo sapiens, UniProt O14965); settings: AURKA, 10 µM; read-out: score (%)
T8 construct: purchased DiscoveRx (KinomeScan)
T8 sequence (O14965 1-403): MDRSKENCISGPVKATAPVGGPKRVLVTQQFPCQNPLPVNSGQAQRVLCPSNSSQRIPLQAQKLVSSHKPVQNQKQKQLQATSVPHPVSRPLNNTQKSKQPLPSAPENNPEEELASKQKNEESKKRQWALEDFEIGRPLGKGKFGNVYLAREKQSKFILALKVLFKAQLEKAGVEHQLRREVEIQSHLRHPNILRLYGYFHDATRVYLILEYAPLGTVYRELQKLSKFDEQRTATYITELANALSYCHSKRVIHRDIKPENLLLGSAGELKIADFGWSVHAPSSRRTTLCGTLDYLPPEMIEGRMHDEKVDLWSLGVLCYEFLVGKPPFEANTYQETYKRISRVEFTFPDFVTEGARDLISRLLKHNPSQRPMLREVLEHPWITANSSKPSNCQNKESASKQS

[9] = target: T9, KinomeScan kinase panel (Homo sapiens, UniProt P49760); settings: CLK2, 10 µM; read-out: score (%)
T9 construct: purchased DiscoveRx (KinomeScan)

[10] = target: T10, KinomeScan kinase panel (Homo sapiens, UniProt O14730); settings: read-out: score (%)
T10 construct: purchased DiscoveRx (KinomeScan)
T10 sequence (O14730 1-519): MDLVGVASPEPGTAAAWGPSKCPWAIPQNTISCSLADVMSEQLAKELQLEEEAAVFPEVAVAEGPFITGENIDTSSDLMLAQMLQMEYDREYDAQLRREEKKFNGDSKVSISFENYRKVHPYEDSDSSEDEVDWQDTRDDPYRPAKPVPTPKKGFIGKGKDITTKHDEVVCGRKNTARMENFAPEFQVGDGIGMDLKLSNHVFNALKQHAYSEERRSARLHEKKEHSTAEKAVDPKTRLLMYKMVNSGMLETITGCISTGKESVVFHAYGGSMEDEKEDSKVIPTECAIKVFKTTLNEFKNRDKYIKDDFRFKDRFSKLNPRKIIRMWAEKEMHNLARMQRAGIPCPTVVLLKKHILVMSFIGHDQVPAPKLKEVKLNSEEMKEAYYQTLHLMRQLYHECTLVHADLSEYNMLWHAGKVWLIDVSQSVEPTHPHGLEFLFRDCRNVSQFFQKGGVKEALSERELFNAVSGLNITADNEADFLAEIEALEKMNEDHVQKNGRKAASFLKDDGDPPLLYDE

T9 sequence (P49760 whole entry): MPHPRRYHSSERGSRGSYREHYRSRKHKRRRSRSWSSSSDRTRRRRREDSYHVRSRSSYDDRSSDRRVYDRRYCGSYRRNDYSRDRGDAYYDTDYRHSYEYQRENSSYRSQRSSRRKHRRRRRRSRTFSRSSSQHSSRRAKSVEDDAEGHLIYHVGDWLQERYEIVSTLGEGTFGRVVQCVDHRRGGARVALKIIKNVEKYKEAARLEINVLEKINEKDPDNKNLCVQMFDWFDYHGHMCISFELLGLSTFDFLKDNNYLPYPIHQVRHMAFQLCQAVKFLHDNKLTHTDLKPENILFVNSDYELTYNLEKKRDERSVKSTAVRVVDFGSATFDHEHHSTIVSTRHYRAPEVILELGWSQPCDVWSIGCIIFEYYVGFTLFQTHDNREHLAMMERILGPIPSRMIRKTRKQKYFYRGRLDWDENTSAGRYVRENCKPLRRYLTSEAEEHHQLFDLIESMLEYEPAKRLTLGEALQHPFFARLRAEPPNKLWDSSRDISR
T1 sequence (Q16513 whole entry): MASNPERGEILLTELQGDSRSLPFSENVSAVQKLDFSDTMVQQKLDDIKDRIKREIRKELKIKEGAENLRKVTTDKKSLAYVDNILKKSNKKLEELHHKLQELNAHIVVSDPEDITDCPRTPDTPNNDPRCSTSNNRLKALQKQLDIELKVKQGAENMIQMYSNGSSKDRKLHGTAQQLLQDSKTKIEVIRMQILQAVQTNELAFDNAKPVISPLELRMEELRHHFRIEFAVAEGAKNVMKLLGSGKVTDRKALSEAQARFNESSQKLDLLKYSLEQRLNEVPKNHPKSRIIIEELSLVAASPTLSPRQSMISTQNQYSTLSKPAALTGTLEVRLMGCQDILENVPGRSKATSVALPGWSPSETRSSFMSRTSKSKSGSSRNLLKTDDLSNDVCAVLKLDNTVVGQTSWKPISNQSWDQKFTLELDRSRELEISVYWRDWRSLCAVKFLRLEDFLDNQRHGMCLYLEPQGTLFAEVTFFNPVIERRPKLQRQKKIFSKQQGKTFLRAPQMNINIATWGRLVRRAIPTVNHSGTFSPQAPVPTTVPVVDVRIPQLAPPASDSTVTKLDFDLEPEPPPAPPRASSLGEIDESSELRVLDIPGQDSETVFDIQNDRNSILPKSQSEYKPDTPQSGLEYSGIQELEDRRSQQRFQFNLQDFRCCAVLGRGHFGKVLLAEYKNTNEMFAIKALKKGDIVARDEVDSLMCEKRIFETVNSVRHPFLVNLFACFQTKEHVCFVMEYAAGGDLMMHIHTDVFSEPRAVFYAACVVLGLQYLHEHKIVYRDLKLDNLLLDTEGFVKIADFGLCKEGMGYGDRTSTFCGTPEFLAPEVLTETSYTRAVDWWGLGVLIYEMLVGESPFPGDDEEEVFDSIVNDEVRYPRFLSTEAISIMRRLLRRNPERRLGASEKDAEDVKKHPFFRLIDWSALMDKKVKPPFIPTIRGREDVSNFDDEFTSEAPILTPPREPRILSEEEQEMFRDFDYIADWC
T7 sequence (P28482 whole entry): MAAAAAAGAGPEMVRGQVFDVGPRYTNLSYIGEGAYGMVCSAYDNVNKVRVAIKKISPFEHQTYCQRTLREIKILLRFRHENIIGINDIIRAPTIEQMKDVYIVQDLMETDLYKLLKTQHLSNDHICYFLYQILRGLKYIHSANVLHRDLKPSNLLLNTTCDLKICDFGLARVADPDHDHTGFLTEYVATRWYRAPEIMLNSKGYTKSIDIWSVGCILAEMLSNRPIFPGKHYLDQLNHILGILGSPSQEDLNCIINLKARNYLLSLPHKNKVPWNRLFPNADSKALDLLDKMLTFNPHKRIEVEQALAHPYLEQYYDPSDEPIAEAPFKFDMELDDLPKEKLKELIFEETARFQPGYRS
T2 sequence (Q96Q40 whole entry): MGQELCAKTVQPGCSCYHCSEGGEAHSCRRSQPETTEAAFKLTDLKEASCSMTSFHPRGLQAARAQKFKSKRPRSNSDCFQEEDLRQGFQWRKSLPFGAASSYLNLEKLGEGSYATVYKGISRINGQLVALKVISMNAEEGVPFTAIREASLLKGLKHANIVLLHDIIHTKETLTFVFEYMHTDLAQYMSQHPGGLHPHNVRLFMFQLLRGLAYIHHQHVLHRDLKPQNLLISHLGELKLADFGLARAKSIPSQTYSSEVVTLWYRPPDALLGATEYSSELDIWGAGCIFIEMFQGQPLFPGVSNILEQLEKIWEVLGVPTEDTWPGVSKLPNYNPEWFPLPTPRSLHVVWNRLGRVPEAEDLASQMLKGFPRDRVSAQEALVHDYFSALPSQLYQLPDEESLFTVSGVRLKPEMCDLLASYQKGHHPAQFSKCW
T6 sequence (P42336 whole entry E545K): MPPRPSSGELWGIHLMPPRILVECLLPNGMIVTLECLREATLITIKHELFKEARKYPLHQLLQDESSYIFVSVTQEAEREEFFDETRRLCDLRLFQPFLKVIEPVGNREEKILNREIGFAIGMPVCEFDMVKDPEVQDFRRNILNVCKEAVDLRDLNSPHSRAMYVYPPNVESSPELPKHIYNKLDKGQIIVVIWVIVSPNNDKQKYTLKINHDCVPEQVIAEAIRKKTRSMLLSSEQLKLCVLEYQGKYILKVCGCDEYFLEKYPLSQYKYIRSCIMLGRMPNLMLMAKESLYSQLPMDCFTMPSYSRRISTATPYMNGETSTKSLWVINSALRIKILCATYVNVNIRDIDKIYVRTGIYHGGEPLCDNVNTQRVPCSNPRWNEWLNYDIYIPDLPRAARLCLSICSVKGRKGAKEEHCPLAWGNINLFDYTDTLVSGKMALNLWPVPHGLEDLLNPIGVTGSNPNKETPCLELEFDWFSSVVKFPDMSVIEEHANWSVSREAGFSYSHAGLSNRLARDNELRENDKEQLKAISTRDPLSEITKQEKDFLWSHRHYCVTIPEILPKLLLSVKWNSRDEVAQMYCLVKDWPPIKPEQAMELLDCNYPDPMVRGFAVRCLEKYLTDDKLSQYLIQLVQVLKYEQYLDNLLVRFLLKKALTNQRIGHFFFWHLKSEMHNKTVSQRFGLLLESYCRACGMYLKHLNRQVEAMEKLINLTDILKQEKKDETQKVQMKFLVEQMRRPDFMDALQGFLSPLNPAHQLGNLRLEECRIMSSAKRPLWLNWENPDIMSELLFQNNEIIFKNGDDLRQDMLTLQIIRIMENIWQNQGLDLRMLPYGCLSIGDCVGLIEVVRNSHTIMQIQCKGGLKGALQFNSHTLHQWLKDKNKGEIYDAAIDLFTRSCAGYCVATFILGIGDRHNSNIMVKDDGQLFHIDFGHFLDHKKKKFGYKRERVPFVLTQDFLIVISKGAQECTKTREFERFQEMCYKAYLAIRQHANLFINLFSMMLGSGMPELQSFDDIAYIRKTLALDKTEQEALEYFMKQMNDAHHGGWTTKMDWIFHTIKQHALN
T5 sequence (Q9Y463 whole entry): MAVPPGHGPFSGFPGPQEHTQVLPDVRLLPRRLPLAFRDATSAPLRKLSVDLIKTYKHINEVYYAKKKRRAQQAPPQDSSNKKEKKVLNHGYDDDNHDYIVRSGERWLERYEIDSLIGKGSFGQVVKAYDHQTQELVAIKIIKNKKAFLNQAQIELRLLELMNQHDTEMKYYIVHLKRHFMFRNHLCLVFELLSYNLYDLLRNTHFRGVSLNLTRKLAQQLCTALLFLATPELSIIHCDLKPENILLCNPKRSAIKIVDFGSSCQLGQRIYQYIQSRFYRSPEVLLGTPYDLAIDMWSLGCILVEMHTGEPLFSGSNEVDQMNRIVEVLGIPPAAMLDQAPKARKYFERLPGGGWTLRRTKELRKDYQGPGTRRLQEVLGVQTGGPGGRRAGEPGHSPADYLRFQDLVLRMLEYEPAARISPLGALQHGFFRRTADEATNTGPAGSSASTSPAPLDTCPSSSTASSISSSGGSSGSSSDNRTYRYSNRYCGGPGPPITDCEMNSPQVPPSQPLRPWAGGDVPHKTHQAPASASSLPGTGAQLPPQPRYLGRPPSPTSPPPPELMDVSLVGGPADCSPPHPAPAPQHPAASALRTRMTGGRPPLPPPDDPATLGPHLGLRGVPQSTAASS

Row | SMILES | remaining binding at 10 µM [1] [%] | remaining binding at 10 µM [2] [%] | remaining binding at 10 µM [3] [%] | remaining binding at 10 µM [4] [%] | remaining binding at 10 µM [5] [%] | remaining binding at 10 µM [6] [%] | remaining binding at 10 µM [7] [%] | remaining binding at 10 µM [8] [%] | remaining binding at 10 µM [9] [%] | remaining binding at 10 µM ([10]; kinase RIOK3, 10 µM) [%] | remaining binding at 10 µM ([10]; RIOK3, 10 µM) [%]
1 | CCN1CCN(Cc2ccc(NC(=O)c3ccc(C)c(C#Cc4cccnc4)c3)cc2C(F)(F)F)CC1 [XMD15-44] | 36 | 6.4 | > 30 | > 30 | > 30 | 85 | > 30 | > 30 | > 30 | 70 | 
2 | CCN1CCN(Cc2ccc(NC(=O)c3ccc(C)c(/C=C/c4cnc5[nH]ccc5c4Cl)c3)cc2C(F)(F)F)CC1 [HG-6-63-01, (E)-3-(2-(4-chloro-1H-pyrrolo[2,3-b]pyridin-5-yl)vinyl)-N-(4-((4-ethylpiperazin-1-yl)methyl)-3-(trifluoromethyl)phenyl)-4-methylbenzamide] | 23 | > 30 | > 30 | > 30 | 22 | > 30 | > 30 | 24 | > 30 |  | 0.35
3 | CCN1CCN(Cc2ccc(NC(=O)c3ccc(C)c(NC(=O)c4cncc(-c5cccs5)c4)c3)cc2C(F)(F)F)CC1 [ALW-II-41-27] | > 30 | > 30 | > 30 | > 30 | 12 | > 30 | > 30 | > 30 | 2.4 |  | > 30
